Test results published in publication PMC6548402, “Increasing molar activity by HPLC purification improves ^68Ga-DOTA-NAPamide tumor accumulation in a B16/F1 melanoma xenograft model” (PLoS ONE, 2019).
Like-named read-outs stand apart in the source and are kept apart here. Blank lines part the entries; values can stand above or below the molecule they belong to.

Experiments:
[1] = In vivo biodistribution in B16/F1 xenograft-bearing nude mice; parameters: species or system mouse; conditions: NMRI-Foxn1nu/Foxn1nu, mouse, iv, 5 MBq, total radioactivity; for tissue uptake at 1 h: 1 h after i.v. injection; for tissue to tissue ratio at 1 h: Fig 3
Experimental: (§1) B16/F1 cells (3x10^6) in a volume of 150 μL 0.9% NaCl were inoculated subcutaneously on the right shoulder of NMRI-Foxn1^nu /Foxn1^nu mice (Janvier Labs, Saint-Berthevin, France). After 1–2 weeks of growth, tumor bearing mice were injected with approximately 5 MBq of ^68Ga-DOTA-NAPamide in a volume of 100 μL 0.9% NaCl into a lateral tail vein via a catheter. Mice were sacrificed and dissected 1 h after injection. The B16F1 tumor, blood, stomach, pancreas, small intestine, colon, liver, spleen, kidney, heart, lung, muscle and femur samples were weighed and uptake of radioactivity was measured by a gamma counter (Wallac 1470 Wizard, Perkin Elmer, Waltham, MA, USA). To determine the effect of unlabeled ligand on tumor uptake, either 50 pmol or 500 pmol non-labeled DOTA-NAPamide were co-injected.

[2] = tested on: MC1R-expressing B16/F1 tumor xenografts; experiment: as above; parameters: species or system mouse
Experimental: as §1

[3] = In vivo PET/MRI imaging of mice bearing B16/F1 tumors (SUV by VOI); parameters: species or system mouse; conditions: NMRI-Foxn1nu/Foxn1nu, mouse, B16/F1 tumor, iv, total radioactivity; for SUV: dynamic PET; for SUV at 1 h: 1 h post injection, n = 1
Experimental: (§2) B16/F1 cells (3x10^6) in a volume of 150 μL 0.9% NaCl were inoculated subcutaneously on the right shoulder of NMRI-Foxn1^nu /Foxn1^nu mice (Janvier Labs, Saint-Berthevin, France). After 1–2 weeks of growth, tumor bearing mice were injected with approximately 15 MBq of ^68Ga-DOTA-NAPamide in a volume of approximately 150 μL 0.9% NaCl into a lateral tail vein via a catheter. Positron emission tomography (PET) / magnetic resonance imaging (MRI) (1 Tesla nanoScan PET/MRI Mediso, Budapest, Hungary) was performed at Berlin Experimental Radionuclide Imaging Center (BERIC), Charité –Universitätsmedizin Berlin. Anatomic MRI scans were acquired using a T2-weighted 2D fast spin echo sequence (T2 FSE 2D) with the following parameters: coronal sequentially, matrix 256x256x20 with dimensions 0.36x0.36x1.5mm^3, TR: 8695 ms, TE: 103 ms, and a flip angle of 180°. PET scans were performed for 90 min starting directly before intravenous injection of tracer. PET images were reconstructed from the raw data with the following image sequence: 6 x 10 s, 6 x 30 s, 5 x 60 s and 8 X 600 s. The tracer standardized uptake value (SUV) in the tumor tissue was determined by manual contouring of a volume of interest (VOI) of the PET images using PMOD 3.610 (PMOD Technologies, Zürich, Switzerland).

[4] = tested on: B16/F1 tumors; experiment: as above; parameters: species or system mouse; conditions: dynamic PET, all tested conditions, after injection
Experimental: as §2

[5] = biological target: T1, murine MC1R expressed in the B16/F1 cells (Mus musculus, UniProt Q01727); experiment: Competitive binding (ligand displacement) with 125I-NDP-MSH on whole B16/F1 cells; conditions: displacement of 125I-NDP-MSH, n = 3
T1 construct: endogenous in cells; host or cells: B16/F1 mouse melanoma cells (live, whole cells)
Experimental: [Nle^4,d-Phe^7]-melanocyte-stimulating hormone (NDP-MSH) was iodinated with Na^125I by the chloramine-T method and it was purified from unlabeled peptide by HPLC as described before. Saturation and competitive binding studies were performed with live cells. 40.000 B16/F1 cells were seeded per well into a 96-well flat bottom cell culture plate. For competitive binding, medium was removed and 50 μL of binding buffer (50 mM 4-(2-hydroxyethyl)-1-piperazineethanesulfonic acid (HEPES) pH 7.4, 5 mM MgCl2, 1 mM CaCl2, 0.5% BSA, protease inhibitor cocktail cOmplete [Roche Applied Science, Penzberg, Germany]) with increasing concentrations of non-radioactive peptide was added to the cells. Additionally, 50 μL binding buffer with 100,000 counts per minute (cpm) of ^125I-NDP-MSH was added. After 30 minutes of incubation at 37°C, cells were washed 4 times with cold washing buffer (50 mM Tris-HCl pH 7.4, 125 mM NaCl, 0.05% BSA). 100 μL 1 N NaOH was added to lyse cells. Lysates were transferred into vials and measured using a gamma counter (Wallac 1470 Wizard, PerkinElmer, Waltham, MA, USA). The saturation assay was performed by adding 100 μL of binding buffer with increasing amounts of ^125I-NDP-MSH to the cells in the presence or absence of 1 μM of unlabeled NDP-MSH.

[6] = tested on: tumor; conditions: 4 h p.i., 111In and 67Ga labels; cited from earlier work
[7] = B16/F1 cells, Fig 1B (impact of gallium chelation)

T1 sequence (Q01727 whole entry): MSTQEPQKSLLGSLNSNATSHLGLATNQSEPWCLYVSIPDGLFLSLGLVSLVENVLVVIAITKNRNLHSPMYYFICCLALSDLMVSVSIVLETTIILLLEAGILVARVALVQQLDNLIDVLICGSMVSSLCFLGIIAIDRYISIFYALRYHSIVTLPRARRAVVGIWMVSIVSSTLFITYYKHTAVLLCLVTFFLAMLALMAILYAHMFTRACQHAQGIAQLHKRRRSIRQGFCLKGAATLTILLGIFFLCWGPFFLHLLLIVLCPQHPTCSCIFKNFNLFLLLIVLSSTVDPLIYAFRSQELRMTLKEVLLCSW

tissue uptake at 1 h ([1]; B16/F1 tumor, HPLC-purified tracer, ~5 MBq, ± 95% CI, n = 7, read-out: tumor uptake): 7 %ID/g | tissue uptake at 1 h ([1]; B16/F1 tumor, non-purified tracer (standard procedure), ~5 MBq, ± 95% CI, n = 7, read-out: tumor uptake): 0.78 %ID/g | tissue uptake at 1 h ([1]; all other tissues (except tumor and kidneys), mostly below, read-out: uptake in all other tissues (except tumor and kidneys)): < 0.5 %ID/g | tissue to tissue ratio at 1 h ([1]; tumor / all other organs investigated, HPLC-purified tracer, read-out: tumor-to-tissue ratios for all other organs investigated): > 15 | tissue to tissue ratio at 1 h ([1]; tumor / kidney, HPLC-purified tracer, read-out: tumor-to-kidney ratio): 2.33 | decrease in tumor uptake vs purified tracer alone ([2]; 500 pmol coinjected unlabeled peptide, 1 h): approximately 6 fold | increase in tumor uptake, purified vs non-purified ([2]; 1 h post injection): more than 8 fold | tumor uptake ([2]; HPLC-purified tracer, 1 h after i.v. injection, ~5 MBq, ± 95% CI, n = 7): 7.0% ± 1.7% | tumor uptake ([2]; non-purified tracer (standard procedure), 1 h after i.v. injection, ~5 MBq, ± 95% CI, n = 7): 0.78% ± 0.55% | tumor uptake ([2]; purified tracer + coinjection of 50 pmol (1,000-fold) cold DOTA-NAPamide, 1 h, Fig 4, n = 3, ± 95% CI): 3.8% ± 3.6% | tumor uptake ([2]; purified tracer + coinjection of 500 pmol (10,000-fold) cold DOTA-NAPamide, 1 h, Fig 4, n = 3, ± 95% CI): 1.1% ± 0.5% | tumor uptake ([2]; purified tracer alone, 5 MBq (~50 fmol), 1 h, Fig 4, n = 3, ± 95% CI): 6.7% ± 1.9% | kidney uptake ([2]; purified tracer, 1 h after i.v. injection, ± 95% CI): 3.0% ± 0.6% | kidney uptake ([2]; standard procedure (non-purified), 1 h after i.v. injection, ± 95% CI): 4.6% ± 2.7% | SUV ([3]; 15 MBq, the other tumors (other three formulations), read-out: initial amount of radioactivity in the tumor (mean SUV)): 0.43 SUV | SUV at 1 h ([3]; 15 MBq, purified tracer): 0.42 SUV | SUV at 1 h ([3]; 15 MBq, unpurified tracer (standard procedure)): 0.119 SUV | SUV ([3]; animal with 1,000-fold excess of cold peptide mass, read-out: initial amount of radioactivity in the tumor (SUV)): 0.63 SUV | SUV at 1 h ([3]; purified + 1,000-fold excess of cold peptide): 0.367 SUV | SUV at 1 h ([3]; purified + 10,000-fold excess of unlabeled peptide): 0.152 SUV | time to maximum tracer level in the tumors [4]: 5 to 10 min
Molecule: CCCC[C@H](NC(C)=O)C(=O)N[C@@H](CC(=O)O)C(=O)N[C@@H](Cc1c[nH]cn1)C(=O)N[C@H](Cc1ccccc1)C(=O)N[C@@H](CCCNC(=N)N)C(=O)N[C@@H](Cc1c[nH]c2ccccc12)C(=O)NCC(=O)N[C@@H](CCCCNC(=O)CN1CCN(CC(=O)O)CCN(CC(=O)O)CCN(CC(=O)O)CC1)C(N)=O [68Ga-DOTA-NAPamide, metal not drawn]

Ki [5, 7]: 400 pM | Ki ([5]; whole B16/F1 cells, Fig 1A): 370 pM
Molecule: CCCC[C@H](NC(C)=O)C(=O)N[C@@H](CC(=O)O)C(=O)N[C@@H](Cc1c[nH]cn1)C(=O)N[C@H](Cc1ccccc1)C(=O)N[C@@H](CCCNC(=N)N)C(=O)N[C@@H](Cc1c[nH]c2ccccc12)C(=O)NCC(=O)N[C@@H](CCCCNC(=O)CN1CCN(CC(=O)O)CCN(CC(=O)O)CCN(CC(=O)O)CC1)C(N)=O [DOTA-NAPamide, Acetyl-Nle-Asp-His-D-Phe-Arg-Trp-Gly-Lys(DOTA)-NH2]
tumor uptake [6]: 7.56% to 9.43%

Ki [5, 7]: 430 pM
Molecule: Ga-labeled DOTA-NAPamide: DOTA-NAPamide complexed with non-radioactive Ga (XDHFRWGK; Linear alpha-MSH analogue Ac-Nle-Asp-His-D-Phe-Arg-Trp-Gly-Lys(DOTA)-NH2: N-terminal acetyl; X1 = norleucine; D-Phe4; Lys8 side chain conjugated to DOTA chelating non-radioactive Ga; C-terminal amide)
